# How the values were obtained:
# HIV-1Ba-L [1] = test: Combination of HIV-1 inhibitors in HIV-1Ba-L infected PBMC (checker board, CalcuSyn)
# Procedure: After 7 days of incubation, p24 antigen in culture supernatant was quantified by ELISA and cellular viability was assessed by a cytotoxicity assay. fa was calculated for each drug combination after p24 quantification. Using the CalcuSyn program, dose-effect curves were plotted for each drug combination, i.e., each dose was plotted against the corresponding fa value. […] CI values were calculated using the mutually nonexclusive assumption.
# COX-2 = biological target: T1, COX-2 (Homo sapiens, UniProt P35354); conditions: cited from earlier work
# T1 sequence (P35354 18-604): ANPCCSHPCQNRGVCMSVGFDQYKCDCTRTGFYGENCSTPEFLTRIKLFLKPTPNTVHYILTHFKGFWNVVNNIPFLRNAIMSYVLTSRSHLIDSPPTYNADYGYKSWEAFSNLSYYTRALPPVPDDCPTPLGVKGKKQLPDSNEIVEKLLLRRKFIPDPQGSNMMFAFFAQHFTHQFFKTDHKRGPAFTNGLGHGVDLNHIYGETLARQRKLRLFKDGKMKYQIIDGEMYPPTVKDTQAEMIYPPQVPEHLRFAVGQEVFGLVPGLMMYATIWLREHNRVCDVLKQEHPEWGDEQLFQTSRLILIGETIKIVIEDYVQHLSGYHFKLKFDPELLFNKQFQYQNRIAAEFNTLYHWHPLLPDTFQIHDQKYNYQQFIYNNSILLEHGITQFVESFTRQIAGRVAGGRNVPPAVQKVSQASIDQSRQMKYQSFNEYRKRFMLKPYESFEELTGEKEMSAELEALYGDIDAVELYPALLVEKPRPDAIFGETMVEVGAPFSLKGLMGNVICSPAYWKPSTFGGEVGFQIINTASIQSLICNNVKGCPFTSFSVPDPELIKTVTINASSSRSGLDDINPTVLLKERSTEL
# HIV-1Ba-L [2] = test: HIV-1 infection of PBMC, p24-core antigen ELISA; type: cell-based; conditions: for antiviral activity compared to APHS / antiviral activity compared to compound 18: PBMC, HIV-1Ba-L
# Procedure: To correct for the input virus, an extra control consisting of medium containing the same amount of input virus as added to the cells was included in the experiment. The amount of p24 in this control was subsequently subtracted from the p24 values of the samples in order to obtain the exact amount of p24 produced by the cells. p24-core antigen quantification by ELISA After 2 or 7 days incubation, samples of the supernatants were collected, inactivated by addition of Empigen (Calbiochem, La Jolla, CA, USA) and by heat inactivation at 56°C for 30 min. p24-core antigen concentration was determined by an enzyme linked immunoabsorbent assay (ELISA) (AMPAK™, DAKO, Cambridgeshire, UK) as described previously ^18,19. The optical density values were converted into p24 concentration (ng/ml) with the use of a calibration curve made by serial dilutions of recombinant p24 protein (NIBSC, UK) that was submitted to the same treatment as the samples.
# (§1) To correct for the input virus, an extra control consisting of medium containing the same amount of input virus as added to the cells was included in the experiment. The amount of p24 in this control was subsequently subtracted from the p24 values of the samples in order to obtain the exact amount of p24 produced by the cells.
# After 7 days incubation, samples of the supernatants were collected, inactivated by addition of Empigen (Calbiochem, La Jolla, CA, USA) and by heat inactivation at 56°C for 30 min. p24-core antigen concentration was determined by an ELISA (AMPAK™, DAKO, Cambridgeshire, UK) as described previously ^39,40. The optical density values were converted into p24 concentration (ng/ml) with the use of a calibration curve made by serial dilutions of recombinant p24 protein (NIBSC, UK) that was submitted to the same treatment as the samples.
# as §1
# After 7 days incubation, samples of the supernatants were collected, inactivated by addition of Empigen (Calbiochem, La Jolla, CA, USA) and by heat inactivation at 56°C for 30 min. p24-core antigen concentration was determined by an enzyme linked immunoabsorbent assay (ELISA) (AMPAK™, DAKO, Cambridgeshire, UK) as described previously 15,16. The optical density values were converted into p24 concentration (ng/ml) with the use of a calibration curve made by serial dilutions of recombinant p24 protein (NIBSC, UK) that was submitted to the same treatment as the samples.
# PBMC = test: Cellular viability assay (MTT) of PBMC; conditions: PBMC
# in vitro = conditions: human, pbmc
# [3] = Human immunodeficiency virus 1, PBMC, 168 h, read-out: IC50 Drug, drug alone, head over this column prints Combination
# [4] = read-out: IC50 Combination Drug, drug in combination with APHS at the equipotent ratio (1 : 1)
# [5] = Human immunodeficiency virus 1, 168 h, PBMC infected with HIV-1Ba-L, p24 antigen after 7 days, read-out: IC50
# [6] = PBMC infected with HIV-1Ba-L, p24 antigen after 7 days, read-out: IC50
# [7] = Human immunodeficiency virus 1, PBMC, 168 h
structure (smiles),measurement,setting,value
"Nc1ccn([C@@H]2CS[C@H](CO)O2)c(=O)n1 [3TC, lamivudine]",IC50,HIV-1Ba-L [1]; [3],10 nM
same,IC50,HIV-1Ba-L [1]; [4],3 nM
CCCCC#CCS(=O)(=O)c1ccccc1OC(C)=O [APHS-d1],"COX-2 activity, potency and selectivity compared with APHS",COX-2,without anti-COX-2 activity
CCCCCCCSc1ccccc1OC(C)=O [APHS-d2],"COX-2 activity, potency and selectivity compared with APHS",COX-2,as potent as APHS but less selective against COX-2 than APHS
CCCCC#CCSc1ccccc1O [APHS-d3],"COX-2 activity, potency and selectivity compared with APHS",COX-2,without COX-2 activity
CSc1ccccc1OC(C)=O [APHS-d4],"COX-2 activity, potency and selectivity compared with APHS",COX-2,more selective than APHS
same,times less potent than APHS against COX-2,COX-2,100
"O=C1Nc2ccc(Cl)cc2[C@@](C#CC2CC2)(C(F)(F)F)O1 [EFV, efavirenz]",IC50,HIV-1Ba-L [1]; [3],1 nM
same,IC50,HIV-1Ba-L [1]; [4],0.2 nM
"CC(C)(C)NC(=O)[C@@H]1CN(Cc2cccnc2)CCN1C[C@@H](O)C[C@@H](Cc1ccccc1)C(=O)N[C@H]1c2ccccc2C[C@H]1O [IDV, indinavir]",IC50,HIV-1Ba-L [1]; [3],11 nM
same,IC50,HIV-1Ba-L [1]; [4],5 nM
"CC(C)c1nc(CN(C)C(=O)N[C@H](C(=O)N[C@@H](Cc2ccccc2)C[C@H](O)[C@H](Cc2ccccc2)NC(=O)OCc2cncs2)C(C)C)cs1 [RTV, ritonavir]",IC50,HIV-1Ba-L [1]; [3],6 nM
same,IC50,HIV-1Ba-L [1]; [4],3 nM
"CC(=O)Oc1ccccc1C(=O)O [aspirin, reference compound]",times less potent than APHS against COX-2,COX-2,60
same,times less selective than APHS for COX-2,COX-2,100
"CCCCC#CCSc1ccccc1OCC [compound 1, Benzene, 1-ethoxy-2-(2-heptynylthio)-]",antiviral activity compared to APHS,HIV-1Ba-L [2],decreased
same,cytotoxicity compared to APHS,PBMC,decreased
"CCCCOCCSc1ccccc1OC(=O)C(F)(F)F [compound 7, Acetic acid, trifluoro-, 2-(2-butoxyethylthio)phenylester]",antiviral activity compared to APHS,HIV-1Ba-L [2],decreased
same,cytotoxicity compared to APHS,PBMC,decreased
CCCCCCCCSc1ccccc1O [compound 8],antiviral activity compared to APHS,HIV-1Ba-L [2],less antiviral activity than APHS
same,cytotoxicity compared to APHS,PBMC,increase
CCCCCCCCSc1ccccc1OC(C)=O [compound 9],IC50,HIV-1Ba-L [2]; [5],20000 nM
same,CC50 at 168 h,in vitro,135000 nM
CCCCCCCSc1ccccc1O [compound 10],antiviral activity compared to APHS,HIV-1Ba-L [2],less antiviral activity than APHS
same,cytotoxicity compared to APHS,PBMC,increase
CCCCCCCSc1ccccc1OC(C)=O [compound 11],IC50,HIV-1Ba-L [2]; [5],10000 nM
same,CC50 at 168 h,in vitro,48000 nM
"CCCCCCCSc1ccccc1OC(=O)C(F)(F)F [compound 12, Acetic acid, trifluoro-, 2-(heptylthio) phenylester]",antiviral activity compared to APHS,HIV-1Ba-L [2],decreased
same,cytotoxicity compared to APHS,PBMC,decreased
"CCCCCCCSc1ccccc1OC(=O)CCCC [compound 13, Phenol, 2-(heptylthio)-, valerate]",antiviral activity compared to APHS,HIV-1Ba-L [2],decreased
same,cytotoxicity compared to APHS,PBMC,decreased
"CCCCCCCSc1ccccc1OC(=O)c1ccccc1 [compound 14, Phenol, 2-(heptylthio)-, benzoate]",antiviral activity compared to APHS,HIV-1Ba-L [2],decreased
same,cytotoxicity compared to APHS,PBMC,increased
CCCCCCCSc1ccc(O)cc1 [compound 15],IC50,HIV-1Ba-L [2]; [6],3000 nM
same,antiviral activity compared to APHS,HIV-1Ba-L [2],increased
same,cytotoxicity compared to APHS,PBMC,increased
same,fold increase in cytotoxicity compared to APHS,PBMC,about 10
"CCCCCCCSc1ccc(OC(C)=O)cc1 [compound 16, Phenol, 4-(heptylthio)-, acetate]",IC50,HIV-1Ba-L [2]; [5],2000 nM
same,antiviral activity compared to APHS,HIV-1Ba-L [2],increase
same,cytotoxicity compared to APHS,PBMC,increase
same,fold increase in cytotoxicity compared to APHS,PBMC,about 10
CCCCCCSc1ccccc1O [compound 17],IC50,HIV-1Ba-L [2]; [7],4000 nM
same,antiviral activity compared to APHS,HIV-1Ba-L [2],improvement
same,cytotoxicity compared to APHS,PBMC,increase
CCCCCCSc1ccccc1OC(C)=O [compound 18],IC50,HIV-1Ba-L [2]; [6],3000 nM
same,CC50,"PBMC; read-out: TC50, 7 days, MTT",119000 nM
CCCCCSc1ccccc1O [compound 19],IC50,HIV-1Ba-L [2]; [7],900 nM
same,antiviral activity compared to APHS,HIV-1Ba-L [2],improved
CCCCCSc1ccccc1OC(C)=O [compound 20],antiviral activity compared to compound 18,HIV-1Ba-L [2],worse
CCCCSc1ccccc1O [compound 21],IC50,HIV-1Ba-L [2]; [7],3000 nM
same,antiviral activity compared to APHS,HIV-1Ba-L [2],improved
CCCCSc1ccccc1OC(C)=O [compound 22],antiviral activity compared to compound 18,HIV-1Ba-L [2],worse
CCCSc1ccccc1O [compound 23],IC50,HIV-1Ba-L [2]; [7],5000 nM
same,antiviral activity compared to APHS,HIV-1Ba-L [2],improved
CCCSc1ccccc1OC(C)=O [compound 24],antiviral activity compared to compound 18,HIV-1Ba-L [2],worse
CCSc1ccccc1O [compound 25],IC50,HIV-1Ba-L [2]; [7],4000 nM
same,antiviral activity compared to APHS,HIV-1Ba-L [2],improved
CCSc1ccccc1OC(C)=O [compound 26],antiviral activity compared to compound 18,HIV-1Ba-L [2],worse

# — EP1452605A1, “Method for determining antiviral activity” (Universiteit Utrecht Holding B.V., priority 2003, dated 2004)
